# pIC50: −log10 of the molar value.
# How the values were obtained:
# Format in all cases: cell-based
# [1] = tested on: MiaPaca human pancreatic carcinoma cells; assay: Cell proliferation assay, Alamar Blue, MiaPaca
# Description: (§1) A representative cell-proliferation assay protocol using Alamar Blue dye (stored at 4° C., use 20 ul per well) is described hereafter.
# (§2) c. Plate 4,000-5,000 cells per well in 100 μl of medium and seed into a 96-well plate according to the following plate layout. Add cell culture medium only to wells B10 to B12. Wells B1 to B9 have cells but no compound added.
# (§3) d. Add 100 μl of 2× drug dilution to each well in a concentration shown in the plate layout above. At the same time, add 100 μl of media into the control wells (wells B10 to B12). Total volume is 200 μl/well.
# (§4) e. Incubate four (4) days at 37° C., 5% CO2 in a humidified incubator.
# (§5) f. Add 20 μl Alamar Blue reagent to each well.
# (§6) g. Incubate for four (4) hours at 37° C., 5% CO2 in a humidified incubator.
# (§7) h. Record fluorescence at an excitation wavelength of 544 nm and emission wavelength of 590 nm using a microplate reader.
# (§8) In the assays, cells are cultured with a test compound for approximately four days, the dye then is added to the cells and fluorescence of […] dye is detected after approximately four hours. Different types of cells can be utilized in the assays (e.g., HCT-116 human colorectal carcinoma cells, PC-3 human prostatic cancer cells and MiaPaca human pancreatic carcinoma cells). Anti-proliferative effects of representative compounds are provided hereafter.
# [2] = tested on: HCT-116 human colorectal carcinoma cells; assay: Cell proliferation assay, Alamar Blue, HCT-116;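 further: cells exposed to compound for about 4 days, then Alamar Blue added and fluorescence read after about 4 h, medium-only wells as control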
# [3] = tested on: Jurkat; assay: Cell proliferation assay, Alamar Blue, Jurkat; conditions: Homo sapiens, Table 18;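 further: cells exposed to compound for about 4 days at 37 °C, then Alamar Blue added and fluorescence read after about 4 h, controls given medium without drug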
# [4] = tested on: PC-3 human prostatic cancer cells; assay: Cell proliferation assay, Alamar Blue, PC-3; conditions: Table 18, read-out: IC50 PC3
# Description: as §1, §2, §3, §4, §5, §6, §7, §8
# [5] = tested on: Hs578T; assay: Cell proliferation assay, Alamar Blue, Hs578T; conditions: Homo sapiens, Hs-578T; Table 18
# [6] = tested on: PanC1; assay: Cell proliferation assay, Alamar Blue, PanC1; conditions: Homo sapiens, PANC-1; Table 19b; read-out: IC50 PanC1
# Description: as §1, §2, §3, §4, §5, §6, §7, §8
# [7] = tested on: BxPC3; assay: Cell proliferation assay, Alamar Blue, BxPC3; conditions: Homo sapiens, BXPC-3; Table 19b
# Description: as §2, §3, §4, §5, §6, §7, §8
# [8] = HCT-116, Table 16, second HCT-116 column
structure (smiles),measurement,setting,value
C#Cc1cccc(Nc2nc3cc(C(=O)O)ccc3c3cnc(NCC4CC4)nc23)c1 [drawing 1064],pIC50,"[1]; MIA PaCa-2, Table 18",6.32
same,pIC50,"[2]; HCT-116, Table 18",< 5.00
same,pIC50,[3],6.38
O=C(O)c1ccc2c(c1)nc(NCCc1cccc(F)c1)c1ccncc12 [drawing 1022],pIC50,"[1]; MIA PaCa-2, Table 18",< 5.00
same,pIC50,[4],4.57
same,pIC50,"[2]; HCT-116, Table 18",< 5.00
same,pIC50,[5],4.61
CC1CCCCN1CCCNc1ncc2c(n1)c(Nc1ccc(F)c(Cl)c1)nc1cc(C(=O)O)ccc12 (stereo not shown) [drawing 1087],pIC50,"[1]; MIA PaCa-2, Table 18",5.50
same,pIC50,[3],5.54
CC1CCCCN1CCCNc1ncc2c(n1)c(Nc1ccc(F)c(Cl)c1)nc1cc(C(=O)O)ccc12 (stereo not shown) [drawing 1280],pIC50,[6],4.98
same,pIC50,[7],5.48
O=C(O)c1ccc2c(c1)nc(NC1CC1)c1nc(SCc3ccccc3Cl)ncc12 [drawing 1265],pIC50,[6],< 4.30
same,pIC50,[7],4.34
O=C(O)c1ccc2c(c1)nc(Nc1cncc(C3CC3)c1)c1ncncc12,pIC50,"[2]; HCT-116, Table 18",< 5.00
same,pIC50,[3],< 4.30
O=C(O)c1ccc2c(c1)nc(NCc1ccccc1)c1ccncc12 [drawing 1218],pIC50,[6],< 4.30
same,pIC50,[7],< 4.30
O=C(O)c1ccc2c(c1)nc(NCCc1cccc(Cl)c1)c1ccncc12 [drawing 1021],pIC50,"[1]; MIA PaCa-2, Table 18",< 5.00
same,pIC50,[4],4.33
same,pIC50,"[2]; HCT-116, Table 18",< 5.00
same,pIC50,[5],4.60
Fc1cc(Nc2nc3cc(-c4nnn[nH]4)ccc3c3cnccc23)ccc1Cl,pIC50,[4],< 4.30
O=C(O)c1ccc2c(c1)nc(NCCCc1ccccc1)c1ccncc12 [drawing 1023],pIC50,"[1]; MIA PaCa-2, Table 18",< 5.00
same,pIC50,[4],5.28
same,pIC50,"[2]; HCT-116, Table 18",< 5.00
same,pIC50,[5],4.52
CCOc1ncc2c(n1)c(NC1CC1)nc1cc(C(=O)O)ccc12 [drawing 1073],pIC50,"[1]; MIA PaCa-2, Table 18",< 4.30
same,pIC50,"[2]; HCT-116, Table 18",< 5.00
Cc1cc(Nc2ncc3c(n2)c(Nc2ccc(F)c(Cl)c2)nc2cc(C(=O)O)ccc23)[nH]n1 [drawing 1093],pIC50,"[1]; MIA PaCa-2, Table 18",4.74
same,pIC50,"[2]; HCT-116, Table 18",< 5.00
O=C(O)c1ccc2c(c1)nc(NCc1ccccc1)c1ccncc12 [drawing 1020],pIC50,"[1]; MIA PaCa-2, Table 18",4.51
same,pIC50,"[2]; HCT-116, Table 18",< 5.00
Cc1cccc(Nc2nc3cc(C(=O)O)ccc3c3cncnc23)c1,pIC50,"[1]; MIA PaCa-2, Table 18",5.08
same,pIC50,"[2]; HCT-116, Table 18",< 5.00
same,pIC50,[3],5.46
CCCNc1ncc2c(n1)c(NC1CC1)nc1cc(C(=O)O)ccc12 [drawing 1103],pIC50,"[1]; MIA PaCa-2, Table 18",5.33
same,pIC50,"[2]; HCT-116, Table 18",< 5.00
same,pIC50,[3],5.13
C#Cc1cccc(Nc2nc3cc(C(=O)O)ccc3c3cnc(NCC4CCCO4)nc23)c1 (stereo not shown) [drawing 1063],pIC50,"[1]; MIA PaCa-2, Table 18",6.35
same,pIC50,"[2]; HCT-116, Table 18",< 5.00
same,pIC50,[3],5.69
CN(C)C(=O)c1cccc(Nc2nc3cc(-c4nnn[nH]4)ccc3c3sccc23)c1,pIC50,"[1]; MIA PaCa-2, Table 16",< 5.00
same,pIC50,[2]; [8],< 5.00
N#Cc1cc(F)cc(Nc2nc3cc(C(=O)O)ccc3c3sccc23)c1,pIC50,"[1]; MIA PaCa-2, Table 16",< 5.00
same,pIC50,[2]; [8],< 5.00
Fc1cc(Cl)cc(Nc2nc3cc(-c4nnn[nH]4)ccc3c3sccc23)c1,pIC50,"[1]; MIA PaCa-2, Table 16",< 5.00
same,pIC50,[2]; [8],< 5.00
O=C(O)c1ccc2c(c1)nc(Nc1cc(F)ccc1F)c1ccsc12,pIC50,"[1]; MIA PaCa-2, Table 16",< 5.00
same,pIC50,[2]; [8],< 5.00
Fc1cccc(Nc2nc3cc(-c4nnn[nH]4)ccc3c3cnccc23)c1,pIC50,[4],< 4.30
CNc1ncc2c(n1)c(Nc1cccc(Cl)c1)nc1cc(C(=O)O)ccc12,pIC50,"[1]; MIA PaCa-2, Table 18",5.76
same,pIC50,"[2]; HCT-116, Table 18",< 5.00
same,pIC50,[3],5.96
NS(=O)(=O)c1cccc(Nc2nc3cc(-c4nnn[nH]4)ccc3c3sccc23)c1,pIC50,"[1]; MIA PaCa-2, Table 16",< 5.00
same,pIC50,[2]; [8],< 5.00
O=C(O)c1ccc2c(c1)nc(NC1CC1)c1ccncc12 [drawing 1097],pIC50,"[1]; MIA PaCa-2, Table 18",4.58
same,pIC50,"[2]; HCT-116, Table 18",< 5.00
O=C(O)c1ccc2c(c1)nc(NC1CC1)c1nc(NCc3ccccc3)ncc12 [drawing 1075],pIC50,"[1]; MIA PaCa-2, Table 18",4.83
same,pIC50,"[2]; HCT-116, Table 18",< 5.00
same,pIC50,[3],5.05
O=C(O)c1ccc2c(c1)nc(N1CCOCC1)c1nc(NC3CC3)ncc12 [drawing 1085],pIC50,"[1]; MIA PaCa-2, Table 18",< 4.30
same,pIC50,[3],5.44
O=C(O)c1ccc2c(c1)nc(Nc1cccc(Cl)c1F)c1ccsc12,pIC50,"[1]; MIA PaCa-2, Table 16",< 5.00
same,pIC50,[2]; [8],< 5.00
Cc1cc(CNC(=O)c2cccc(Nc3nc4cc(-c5nnn[nH]5)ccc4c4sccc34)c2)no1,pIC50,"[1]; MIA PaCa-2, Table 16",< 5.00
same,pIC50,[2]; [8],< 5.00
O=C(O)c1cc(F)cc(Nc2nc3cc(C(=O)O)ccc3c3sccc23)c1,pIC50,"[1]; MIA PaCa-2, Table 16",< 5.00
same,pIC50,[2]; [8],< 5.00
O=C(O)c1ccc2c(c1)nc(Nc1cccc(Br)c1)c1ccsc12,pIC50,"[1]; MIA PaCa-2, Table 16",< 5.00
same,pIC50,[2]; [8],< 5.00
Fc1cc(F)cc(Nc2nc3cc(-c4nnn[nH]4)ccc3c3sccc23)c1,pIC50,"[1]; MIA PaCa-2, Table 16",< 5.00
same,pIC50,[2]; [8],< 5.00
CCOc1cccc(Nc2nc3cc(C(=O)O)ccc3c3sccc23)c1,pIC50,"[1]; MIA PaCa-2, Table 16",< 5.00
same,pIC50,[2]; [8],< 5.00
O=C(O)c1ccc2c(c1)nc(Nc1cccc(C(F)(F)F)c1)c1ccsc12,pIC50,"[1]; MIA PaCa-2, Table 16",< 5.00
same,pIC50,[2]; [8],< 5.00
CNS(=O)(=O)c1cccc(Nc2nc3cc(C(=O)O)ccc3c3sccc23)c1,pIC50,"[1]; MIA PaCa-2, Table 16",< 5.00
same,pIC50,[2]; [8],< 5.00
O=C(O)c1ccc2c(c1)nc(Nc1ccc3cc[nH]c3c1)c1ccsc12,pIC50,"[1]; MIA PaCa-2, Table 16",< 5.00
same,pIC50,[2]; [8],< 5.00
CC(=O)N1CCN(C(=O)c2cccc(Nc3nc4cc(-c5nnn[nH]5)ccc4c4sccc34)c2)CC1,pIC50,"[1]; MIA PaCa-2, Table 16",< 5.00
same,pIC50,[2]; [8],< 5.00
Nc1ncc2c(n1)c(NC1CC1)nc1cc(C(=O)O)ccc12 [drawing 1102],pIC50,"[1]; MIA PaCa-2, Table 18",< 4.30
same,pIC50,"[2]; HCT-116, Table 18",< 5.00
COC(=O)c1ccc2c(c1)nc(NC1CC1)c1nc(SCc3ccccc3Cl)ncc12 [drawing 1069],pIC50,"[1]; MIA PaCa-2, Table 18",4.49
same,pIC50,[3],5.33
O=C(O)c1ccc2c(c1)nc(Nc1ccc3[nH]ccc3c1)c1ccsc12,pIC50,"[1]; MIA PaCa-2, Table 16",< 5.00
same,pIC50,[2]; [8],< 5.00
O=C(O)c1ccc2c(c1)nc(NCc1cccnc1)c1nc(NC3CC3)ncc12 [drawing 1083],pIC50,"[1]; MIA PaCa-2, Table 18",4.86
same,pIC50,"[2]; HCT-116, Table 18",< 5.00
COC(=O)CNC(=O)c1cccc(Nc2nc3cc(-c4nnn[nH]4)ccc3c3sccc23)c1,pIC50,"[1]; MIA PaCa-2, Table 16",< 5.00
same,pIC50,[2]; [8],< 5.00
COCCNC(=O)c1cccc(Nc2nc3cc(-c4nnn[nH]4)ccc3c3sccc23)c1,pIC50,"[1]; MIA PaCa-2, Table 16",< 5.00
same,pIC50,[2]; [8],< 5.00
O=C(O)c1ccc2c(c1)nc(Nc1cc(F)cc(C(F)(F)F)c1)c1ccsc12,pIC50,"[1]; MIA PaCa-2, Table 16",< 5.00
same,pIC50,[2]; [8],< 5.00
O=C(O)c1ccc2c(c1)nc(Nc1cccc(I)c1)c1ccsc12,pIC50,"[1]; MIA PaCa-2, Table 16",5.03
same,pIC50,[2]; [8],< 5.00
O=C(O)c1ccc2c(c1)nc(Nc1cccc(S(=O)(=O)NC3CC3)c1)c1ccsc12,pIC50,"[1]; MIA PaCa-2, Table 16",< 5.00
same,pIC50,[2]; [8],< 5.00
O=C(O)c1ccc2c(c1)nc(NC1CC1)c1nc(NC3CC3)ncc12 [drawing 1074],pIC50,"[1]; MIA PaCa-2, Table 18",5.55
same,pIC50,"[2]; HCT-116, Table 18",< 5.00
same,pIC50,[3],5.46
O=C(O)c1ccc2c(c1)nc(Nc1cc(F)cc(Cl)c1)c1ccsc12,pIC50,"[1]; MIA PaCa-2, Table 16",< 5.00
same,pIC50,[2]; [8],< 5.00
O=C(O)c1ccc2c(c1)nc(Nc1cccc(F)c1F)c1ccsc12,pIC50,"[1]; MIA PaCa-2, Table 16",< 5.00
same,pIC50,[2]; [8],< 5.00
O=C(O)c1ccc2c(c1)nc(NCc1ccccc1)c1nc(NC3CC3)ncc12 [drawing 1084],pIC50,"[1]; MIA PaCa-2, Table 18",4.89
same,pIC50,"[2]; HCT-116, Table 18",< 5.00
O=C(O)c1ccc2c(c1)nc(NC1CC1)c1nc(SCc3ccccc3Cl)ncc12 [drawing 1072],pIC50,"[1]; MIA PaCa-2, Table 18",< 4.30
same,pIC50,[3],4.53
O=C(O)c1ccc2c(c1)nc(NC1CC1)c1nc(Nc3ccccc3)ncc12 [drawing 1076],pIC50,"[1]; MIA PaCa-2, Table 18",5.61
same,pIC50,"[2]; HCT-116, Table 18",< 5.00
same,pIC50,[3],5.34
CNC(=O)Cc1cccc(Nc2nc3cc(C(=O)O)ccc3c3sccc23)c1,pIC50,"[1]; MIA PaCa-2, Table 16",< 5.00
same,pIC50,[2]; [8],< 5.00
CN(C)CCNC(=O)c1cccc(Nc2nc3cc(-c4nnn[nH]4)ccc3c3sccc23)c1,pIC50,"[1]; MIA PaCa-2, Table 16",< 5.00
same,pIC50,[2]; [8],< 5.00

# — US9062043B2, “Fused tricyclic compounds as serine-threonine protein kinase and PARP modulators” (SENHWA BIOSCIENCES, INC., priority 2006, dated 2015)
